What was measured:
[1] = target: Opioid receptors; mu & delta (Rattus norvegicus) (UniProt P33533+P33535); test: Selectivity for rat mu opioid receptor over rat delta opioid receptor; type: protein assay
[2] = target: Delta-type opioid receptor (Rattus norvegicus, UniProt P33533); test: Displacement of [3H]deltorphin II from delta opioid receptor in rat synaptosomes P2 fraction; type: subcellular, Brain
[3] = target: Mu-type opioid receptor (Rattus norvegicus, UniProt P33535); test: Displacement of [3H]DAMGO from mu opioid receptor in rat synaptosomes P2 fraction; type: subcellular, Brain
Sequence of Mu-type opioid receptor (Rattus norvegicus, UniProt P33535) (P33535 whole entry): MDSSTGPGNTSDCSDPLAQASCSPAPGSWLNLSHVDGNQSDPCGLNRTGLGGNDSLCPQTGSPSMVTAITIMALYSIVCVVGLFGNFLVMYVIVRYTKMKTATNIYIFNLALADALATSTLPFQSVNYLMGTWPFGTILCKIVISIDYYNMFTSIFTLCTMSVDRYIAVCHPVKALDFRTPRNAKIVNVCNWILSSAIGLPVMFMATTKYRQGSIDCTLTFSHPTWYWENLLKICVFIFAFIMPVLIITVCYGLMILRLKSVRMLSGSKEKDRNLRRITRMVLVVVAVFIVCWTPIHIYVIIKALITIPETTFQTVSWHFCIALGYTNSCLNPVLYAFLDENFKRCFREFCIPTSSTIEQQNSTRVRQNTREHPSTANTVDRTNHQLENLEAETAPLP

[4] = target: Mu-type opioid receptor (Cavia porcellus, UniProt P97266); test: Activity at mu opioid receptor by guinea pig ileum assay; type: functional, tissue-based
Sequence of Mu-type opioid receptor (Cavia porcellus, UniProt P97266) (P97266 whole entry): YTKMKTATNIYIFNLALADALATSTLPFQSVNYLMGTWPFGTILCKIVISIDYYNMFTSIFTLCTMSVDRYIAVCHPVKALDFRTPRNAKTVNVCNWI

[5] = target: Delta-type opioid receptor (Mus musculus, UniProt P32300); test: (§1) Activity at delta opioid receptor assessed as inhibition of muscle contraction in mouse vas deferens assay; type: functional, tissue-based
Sequence of Delta-type opioid receptor (Mus musculus, UniProt P32300) (P32300 whole entry): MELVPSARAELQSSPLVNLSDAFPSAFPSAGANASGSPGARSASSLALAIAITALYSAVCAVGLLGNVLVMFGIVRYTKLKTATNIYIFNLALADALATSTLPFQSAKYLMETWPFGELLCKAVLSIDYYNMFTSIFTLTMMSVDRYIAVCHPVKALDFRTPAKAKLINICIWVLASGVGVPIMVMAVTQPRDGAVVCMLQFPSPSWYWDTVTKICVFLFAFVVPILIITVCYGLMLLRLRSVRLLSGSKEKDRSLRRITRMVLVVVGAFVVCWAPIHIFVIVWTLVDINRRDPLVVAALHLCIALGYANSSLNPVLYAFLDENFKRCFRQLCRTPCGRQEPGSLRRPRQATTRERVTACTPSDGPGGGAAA

[6] = target: Delta-type opioid receptor (Mus musculus) (UniProt P32300); test: as §1; type: functional, tissue-based; conditions: for inhibition: concentration not given here; for Activity: filed as partial agonist
Sequence of Delta-type opioid receptor (Mus musculus) (P32300 whole entry): as above

Sequence of Opioid receptors; mu & delta (Rattus norvegicus) (P33533 whole entry, looked up): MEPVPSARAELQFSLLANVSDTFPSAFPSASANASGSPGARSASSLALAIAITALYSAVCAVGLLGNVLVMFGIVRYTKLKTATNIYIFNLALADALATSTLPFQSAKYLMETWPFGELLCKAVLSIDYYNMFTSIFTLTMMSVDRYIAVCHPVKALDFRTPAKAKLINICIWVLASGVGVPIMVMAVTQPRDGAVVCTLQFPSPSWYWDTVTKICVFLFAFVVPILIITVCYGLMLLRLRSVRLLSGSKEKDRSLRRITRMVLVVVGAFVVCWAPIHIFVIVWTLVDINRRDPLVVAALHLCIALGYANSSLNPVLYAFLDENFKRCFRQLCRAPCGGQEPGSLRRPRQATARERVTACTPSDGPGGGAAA
Sequence of Opioid receptors; mu & delta (Rattus norvegicus) (P33535 whole entry, looked up): as the sequence (P33535 whole entry) above
Sequence of Delta-type opioid receptor (Rattus norvegicus, UniProt P33533) (P33533 whole entry): as the sequence (P33533 whole entry, looked up) above

| Structure (SMILES) | Ratio Ki [1] | Ki [2] [nM] | Ki [3] [nM] | IC50 [4] [nM] | IC50 [5] [nM] | inhibition [6] [%] | Activity [6] |
| --- | --- | --- | --- | --- | --- | --- | --- |
| Cc1nc(CCCCNC(=O)[C@@H](N)Cc2ccc(O)cc2)c(=O)[nH]c1CCCNC(=O)[C@@H](N)Cc1ccc(O)cc1 | 220 | 924 | 7.58 |  |  |  |  |
| Cc1cc(O)cc(C)c1C[C@H](N)C(=O)NCCCCc1[nH]c(=O)c(CCCNC(=O)[C@@H](N)Cc2c(C)cc(O)cc2C)nc1C | 369 | 18.8 | 0.051 | 4.93 | > 10000 | 44 | Partial agonist |
| Cc1nc(CCCNC(=O)[C@@H](N)Cc2ccc(O)cc2)c(=O)[nH]c1CCCCNC(=O)[C@@H](N)Cc1ccc(O)cc1 | 65 | 2770 | 27.4 |  |  |  |  |
| Cc1cc(O)cc(C)c1C[C@H](N)C(=O)NCCCCc1nc(C)c(CCCNC(=O)[C@@H](N)Cc2c(C)cc(O)cc2C)[nH]c1=O | 1520 | 31.9 | 0.021 | 1.79 | 25.8 | 60 | Partial agonist |
